Measured values taken from patent US20140127159A1, “HCV Combination Therapy” (Stella ApS, priority 2011, published 2014).
“And” between values parts separate entries of the source, which are not always exact repeats. Equal values may be shown once. “Also recorded” adds a separate entry of the source. Read-outs that look alike come from different tables or passages of the source.

Assays:
[1] = test system: HCV genotype 1b replicon NS3 R155K; assay: Transient transfection replicon assay in Huh 7 cells, NS3 R155K; assay type: cell-based; settings: EC50 mutant / EC50 wild-type; mean of two experiments
Description: (§2) Huh 7 cells were transfected with either the wild-type or the mutant RNA constructs by electroporation. Luciferase activity was measured 72 hours after compound treatment and EC50 values determined from dose-response curves. Fold resistance was expressed as the ratio of the EC50 for mutant HCV replicon to the EC50 for wild-type HCV replicon.
(§3) Huh 7 cells were transfected with either the wild type or the mutant RNA constructs by electroporation. Luciferase activity was measured 72 hours after compound treatment and EC50 values determined from dose-response curves. Fold resistance was expressed as the ratio of the EC50 for mutant HCV replicon to the EC50 for wild-type HCV replicon. Results are expressed as the mean of two individual experiments.

[2] = test system: HCV genotype 1b replicon NS5B M423I; assay: Transient transfection replicon assay in Huh 7 cells, NS5B M423I; assay type: cell-based; settings: EC50 mutant / EC50 wild-type; mean of two experiments
Description: as §2, §3

[3] = test system: HCV genotype 1; assay: Phase 2a clinical trial, miravirsen monotherapy; assay type: in vivo, patients; settings: for mean of the maximum HCV RNA decline from baseline: 5 weekly doses subcutaneously over 29 days
Description: Thirty-six treatment-naïve chronic HCV genotype 1 infected patients were enrolled into 3 sequential dosing cohorts and received 5 weekly doses of miravirsen 3, 5, or 7 mg/kg (n=27) or placebo (n=9) subcutaneously over 29 days and were followed up until week 18.

[4] = test system: HCV genotype 1b replicon NS5A Y93H; assay: Transient transfection replicon assay in Huh 7 cells, NS5A Y93H; assay type: cell-based; settings: EC50 mutant / EC50 wild-type; mean of two experiments
Description: as §2, §3

[5] = test system: HCV genotype 1b replicon NS3 A156T; assay: Transient transfection replicon assay in Huh 7 cells, NS3 A156T; assay type: cell-based; settings: EC50 mutant / EC50 wild-type; mean of two experiments
[6] = test system: Huh-luc/neo-ET HCV genotype Ib replicon cells; assay type: cell-based; settings: 28 days culture under G418 selective pressure, crystal violet
Description: Cell culture and Assay setup: The reporter cell line Huh-luc/neo-ET was obtained and prepare as described previously. Cells were plated into 10 cm tissue culture dishes at a density of 3×10^5 cells per plate in culture medium containing 250 μg/ml G418 and incubated for 24 hours at 37° C. in an environment of 5% CO2. Following the 24 hour incubation, dilutions of SPC3649, SPC4729, or telaprevir were prepared in cell culture medium (as above) with 750 μg/ml G418. Each of the dilutions was added to duplicate plates and the plates were incubated at 37° C. in an environment of 5% CO^2. Two additional plates received cell culture medium with 750 μg/ml G418 as a no-treatment control. […] The final concentration of SPC4729 was 10.0 μM. […] Following 28 days of passage, one set of dishes was stained with crystal violet and the other set of plates was utilized for expansion and establishment of resistant cell culture stocks.
Huh-luc/neo-ET HCY genotype Ib replicon cells were cultured under selective pressure in the presence of 750 μg/mL G4 I8 with and without four independent fixed concentrations of SPC3649 anti-miR oligonucleotide, or telaprevir, or one concentration of scrambled oligonucleotide SPC4729 for 28 days in tissue culture plates. Duplicate tissue culture dishes were established and maintained for each culture condition. […]

[7] = test system: HCV genotype 1b replicon NS5B S282T; assay: Transient transfection replicon assay in Huh 7 cells, NS5B S282T; assay type: cell-based; settings: EC50 mutant / EC50 wild-type; mean of two experiments
Description: as §2, §3

[8] = test system: all HCV genotypes; assay: In vitro activity against HCV genotypes; assay type: cell-based
[9] = test system: HCV genotype Ib replicon in Huh-luc/neoET cells; assay type: cell-based; settings: for Efficacy, Antagonism vol: in combination with miravirsen (SPC3649), 95% confidence interval, median (≧3 experiments) or individual values
Description: (§1) The anti-viral efficacy and cellular toxicity of non-transfected antimiR oligonucleotide in combination with approved and experimental anti-HCV therapeutics (boceprevir or telepravir, was determined in the reporter cell line Huh-luc/neo-ET. This cell line harbors the persistently replicating I389luc-ubi-neo/NS3-3′/ET replicon containing the firefly luciferase gene-ubiquitin-neomycin phosphotransferase fusion protein and EMCV IRES driven NS3-5B HCV coding sequences containing the ET tissue culture adaptive mutations (E1202G, T1208I, and K1846T). Eight dilutions of non-transfected antimiR oligonucleotide (bracketing the calculated EC50) were evaluated in triplicate on duplicate sets of three plates with five dilutions of each of the control compounds (bracketing the calculated EC50). One set of plates was used for the determination of cellular toxicity and the other set of plates is used for the determination of anti-viral efficacy. The efficacy and toxicity results was quantified with firefly luciferase activity and XTT dye reduction, respectively, and the results of the assay is imported into the Prichard and Shipman MacSynergy II software program. The MacSynery II analysis includes calculation of the dose response of the two (or more) compounds when used alone followed by calculation of the expected additive level of antiviral inhibition or toxicity when the compounds are used together based on the individual dose response curves. The expected level of activity at each of the concentration data points is compared to the experimentally determined antiviral activity in the assay. The expected activity was subtracted from the realized activity, yielding a negative, zero or positive value.
This example was based on an in vitro evaluation of SPC3649 (miravirsen) in combination with anti-HCV drugs and experimental compounds. […] The combination antiviral assays were performed using the reporter cell line Huh-luc/neo-ET, which contains a bicistronic HCV genotype Ib replicon. Combination data were analyzed using MacSynergy II software at the 95%, confidence interval. The in vitro combination assays were designed to define the antiviral interaction of the two compounds and to determine if their interaction was synergistic or antagonistic.
The reporter cell line Huh-luc/neo-ET was obtained from Dr. Ralf Bartenschlager (Department of Molecular Virology, Hygiene Institute, University of Heidelberg, Germany) by ImQuest BioSciences. This cell line harbors the persistently replicating 1389luc-ubi-neo/NS3-3′IET replicon containing the firefly luciferase gene-ubiquitinneomycin phosphotransferase fusion protein and EMCV IRES driven NS3-5B HCV coding sequences containing the ET tissue culture adaptive mutations (E 1202G, T12081, and KI846T). […]

[10] = test system: Huh-luc/neo-ET
Description: as §1
The reporter cell line Huh-luc/neo-ET was obtained from Dr. Ralf Bartenschlager (Department of Molecular Virology, Hygiene Institute, University of Heidelberg, Germany) by ImQuest BioSciences. This cell line harbors the persistently replicating 1389luc-ubi-neo/NS3-3′IET replicon containing the firefly luciferase gene-ubiquitinneomycin phosphotransferase fusion protein and EMCV IRES driven NS3-5B HCV coding sequences containing the ET tissue culture adaptive mutations (E 1202G, T12081, and KI846T). A stock culture of the Huh-luc/neo-ET was expanded by culture in DMEM supplemented with 10% FBS, 2 mM glutamine, penicillin (100 IU/mL)/streptomycin (100 f.Ig/mL) and IX nonessential amino acids plus I mg/ml G418. Prior to plating, the cells were split 1:4 and cultured for two passages in the same medium plus 250 f.Ig/mL G418. The cells were treated with trypsin and enumerated by staining with trypan blue and seeded into 96-well tissue culture plates at a cell culture density 5.0×10^3 cells per well in a volume of 85 f.IL per well and incubated at […] in an environment of 5% CO2 for 24 hours. Six plates were established for the determination of combination efficacy (EC50) and cytotoxicity (TC50) for each of the compound combinations (three plates each for efficacy and toxicity). […] Following incubation, the plates were assessed for anti-HCV activity by measurement of luciferase reporter activity and cellular cytotoxicity by XTT staining.

Row | Compound | Fold Resistance NS3 R155K [1] [fold] | Fold Resistance NS5B M423I [2] [fold] | Fold Resistance NS5A Y93H [4] [fold] | Fold Resistance NS3 A156T [5] [fold] | Fold Resistance NS5B S282T [7] [fold] | Efficacy, Antagonism vol [9] | Cytotoxicity, Synergy vol ([10]; human) | also measured
1 | 5′-^mCs^ocsAs^otstsGs^oTs^ocsas^mCs^oas^mCs^ots^mCs^omC^o-3′ (CCATTGTCACACTCC; all phosphorothioate, sugars by position and methylation of C not given here; further chemistry not fully specified) [miravirsen] | 1.2 | 1.7 | 0.9 | 1.0 | 1.9 | – | – | mean of the maximum HCV RNA decline from baseline ([3]; 3 mg/kg): 1.2 log10 IU/mL; mean of the maximum HCV RNA decline from baseline ([3]; 5 mg/kg): 2.9 log10 IU/mL; mean of the maximum HCV RNA decline from baseline ([3]; 7 mg/kg): 3.0 log10 IU/mL; safety and tolerability, adverse events ([3]; 3, 5 or 7 mg/kg): no dose-limiting adverse events; also recorded: safe, well-tolerated; escape mutations / emergence of viral resistance ([3]; HCV genome miR-122 binding sites): no escape mutations were observed; also recorded: not seen; distinct individual resistant clonal populations ([6]; listed as SPC3649): failed to produce distinct individual resistant clonal populations; also recorded: distinct individual resistant clonal populations were not produced; efficacy against HCV genotypes in vitro [8]: effective against all HCV genotypes in vitro
2 | C[C@@]1(O)[C@H](O)[C@@H](CO)O[C@H]1n1ccc(N)nc1=O [2′-C-Methylcytidine] | 0.8 | 1.0 | 1.0 | 0.9 | – | – | – | –
3 | COC(=O)N[C@H](C(=O)N1CCC[C@H]1c1nc(-c2ccc(-c3ccc(-c4c[nH]c([C@@H]5CCCN5C(=O)[C@@H](NC(=O)OC)C(C)C)n4)cc3)cc2)c[nH]1)C(C)C [BMS 790052, Carbamic acid, N,N′-[[1,1′-biphenyl]-4,4′-diylbis[1H-imidazole-5,2-diyl-(2S)-2,1-pyrrolidinediyl[(1S)-1-(1-methylethyl)-2-oxo-2,1-ethanediyl]]]bis-, C,C′-dimethyl ester] | – | – | 29.9 | – | – | −24.5 μM^2% and −0.06 μM^2% | 0/−21.9 μM^2% | Cytotoxicity, Antagonism vol ([10]; human): 0/−21.9 μM^2%
4 | CCC[C@H](NC(=O)[C@@H]1[C@H]2CCC[C@H]2CN1C(=O)[C@@H](NC(=O)[C@@H](NC(=O)c1cnccn1)C1CCCCC1)C(C)(C)C)C(=O)C(=O)NC1CC1 [Telaprevir, (1S,3aR,6aS)-2-[(2S)-2-[[(2S)-2-Cyclohexyl-2-(pyrazine-2-carbonylamino)acetyl]amino]-3,3-dimethylbutanoyl]-N-[(3S)-1-(cyclopropylamino)-1,2-dioxohexan-3-yl]-3,3a,4,5,6,6a-hexahydro-1H-cyclopenta[c]pyrrole-1-carboxamide] | 4.6 | – | – | – | 1.0 | 0/−3.2 (±3.08/6.89) μM^2% | – | Efficacy, Antag Vol ([9]; in combination with ribavirin, 95% confidence level, individual values): 37.5/22.6; μM^2%; Cytotoxicity, Antagonism vol ([10]; in combination with miravirsen (SPC3649), 95% confidence interval): 0/−5.05 μM^2%; Cytotoxicity, Antag Vol ([10]; in combination with ribavirin, 95% confidence level): 0.00/−50.9 μM^2%; distinct individual resistant clonal populations [6]: production of distinct individual resistant clonal populations
5 | CC(C)(C)C#Cc1cc(N(C(=O)[C@H]2CC[C@H](C)CC2)[C@H]2CC[C@H](O)CC2)c(C(=O)O)s1 [VX-222] | – | 4.4 | – | – | – | −34.44 μM^2% | 0/−28.6; 0/0 μM^2% | –
